The values below are quoted from earlier work in patent US11065213B2, “Amantadine compositions and preparations thereof” (Adamas Pharma, LLC, priority 2017, dated 2021).

Where two headings read alike, the source gives them in different places.

This series deals with LID in PD patients. The conditions noted are these: IR formulation.

`NC12CC3CC(CC(C3)C1)C2` [amantadine]: for the setting “200 mg/day”, the “reduction in LID” value is “approximately 25%”. For the same compound, the “reduction of LID” value runs as follows: (300 mg/day) ~40%; (300 to 400 mg/day) ~60%.
